Measured values from patent US7312248B2, “Control of parasites in animals by the use of novel trifluoromethanesulfonanilide oxime ether derivatives” (Schering-Plough Animal Health Corporation, priority 2004, dated 2007).
Like-named read-outs stand apart in the source and are kept apart here.

What was measured:
Format in all cases: in vivo
[1] = tested on: cat flea (Ctenocephalides felis); test: whole plant or invertebrate; details: Ctenocephalides felis
Outline: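 Adult C. felis (3-7 days post-emergence; 15 per flask, at least 4 replicates) exposed to a glass flask base dried 24 h after coating with compound in acetone at 1.26 μg/cm^2. Held at 25±1 °C, 75±5% humidity; mortality (immobile or unable to right) scored at 8, 24 and/or 48 h as percentage.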

[2] = tested on: cat flea (Ctenocephalides felis); test: Ctenocephalides felis adulticide assay: dose response (LC50)
Text: c) Ctenocephalides felis Adulticide Assay: C. felis Dose Response
The purpose of this example was to determine the LC50 when cat fleas were contacted with a glass surface treated with sample compounds or formulations prepared as described above. Mortality of fleas was defined as follows: fleas were considered dead if they didn't move or were on their sides and unable to walk or right themselves. LC50: Lethal Concentration 50—concentration of glass surface treatment at which 50% of the cat fleas were killed. The test species was the cat flea (Ctenocephalides felis). The strain used was obtained from external suppliers as pupae and held in the laboratory under testing conditions until the adults had emerged. Fifteen (15) fleas were used in a minimum of four replicates for each dose level (total of 60 fleas per dose level). The insects were selected to be in the adult life stage, aged between 3 and 7 days post emergence.
The compounds to be tested were dissolved in acetone just prior to testing. Samples of compounds were stored in a refrigerator (5±1° C.) unless otherwise specified. During the mortality testing, the temperature was maintained at 25+1° C. Humidity was maintained at 75±5%. The base (area=159 mm^2) of a 100 mL glass Erlenmeyer (conical) flask provided the treatment surface. Flasks were pretreated with Coatasil™ glass treatment to maximise bio-availability of test compounds by preventing them from binding to the glass surface.
Six dose levels (concentrations) of test sample, in the form of a serial dilution, were derived from a pilot study and covered a range that produced very low to very high mortality. The base of the 100 mL Erlenmeyer flask was treated with 0.5 mL of test sample in acetone and gently swirled. This volume was sufficient to cover the base of the flask. Flasks were left to dry for 24 hours before flea exposure. Adult cat fleas were lightly anaesthetised by cooling and then placed into a sorting chamber, which allowed fleas to revive and jump into the Erlenmeyer flasks. Fifteen (15)adult cat fleas were collected in each flask. The top of the flasks were then covered in Parafilm™ and small holes made to allow gas exchange. A 0.5 mL volume of acetone was applied to the base of an Erlenmeyer flask and the testing proceeded in the same manner described above. Cat fleas in the treatment containers were held under testing conditions for 24 hours. Mortality resulting from the treatments was recorded at 8 and 24 hours.

[3] = tested on: Brown Dog Tick (Rhipicephalus sanguineus); test: Rapid screening protocol for topical application on brown dog ticks; details: for R. sanguineus Mortality (%) 48 h: Laboratory 2 F data; for Rhipicephalus sanguineus Mortality (%) 24 h: topical, 10 μg of active per tick in 1 μL acetone, adult ticks, Laboratory 1 E data
Protocol: d) Rapid Screening Protocol for Topical Application on Brown Dog Ticks (Rhipicephalus sanguineus)
The aim of the test was to determine the presence of significant acaricidal activity in sample compounds or formulations when applied topically on brown dog ticks. A tick was defined as dead if it gave no apparent response when touched lightly and observed for 1 minute. […] Both permethrin and fipronil were employed as reference compounds. The insect species tested was the Brown Dog Tick (Rhipicephalus sanguineus). Mixed sex adult ticks were used for tests. The strain used was cultured by von Berky Veterinary Services, Woody Point, QLD, AU and supplied as unfed adult ticks (mixed sex). Ticks were maintained in controlled conditions (temp. 18°+2° C., humidity 75±5% RH).
Temperature was maintained at 25±1° C. and the humidity was ambient. […] Ticks were each treated on the abdomen with 1 μL of a single dose level of test sample in acetone; ten ticks were treated with solvent only (acetone) in each test. Tests were replicated 4 times (total of 40 ticks treated). […]

[4] = tested on: Brown Dog Tick (Rhipicephalus sanguineus); test: Dose response protocol for topical application on brown dog ticks (LD50); details: 24 h mortality
Protocol: e) Dose response protocol for topical application on brown dog ticks (Rhipicephalus sanguineus): The test determines the level of insecticidal activity of sample compounds or formulations when applied topically on brown dog ticks. Sample compounds were stored prior to use in a freezer (−5±1° C.), unless otherwise specified.
• Mortality: A tick is defined as dead after it gives no apparent response when touched lightly or gently breathed upon, while observed for 30 seconds. • LD50 (Lethal Dose 50): The dose of a topically applied treatment at which 50% of the dog ticks are killed. • Reference compound: To assess an experimental compound for significant acaricidal activity a single dose level is chosen, which is based upon known results from previous experiments using a commercially available active i.e., a reference compound. The reference compound selected is one in common use, and one that has a similar mode of action against the Brown Dog Tick (i.e., the test species). • Recovery container: A recovery container consists of a 500 ml round plastic container measuring 115 mm diameter and 70 mm height, with a tight fitting lid that has 10 small (˜1 mm) holes inserted for air exchange. A 90 mm diameter piece of filter paper was placed on the bottom of the container and moistened with 1 mL of de-stilled water.
Adult, mixed sex, Brown Dog Ticks (Rhipicephalus sanguineus) were reared as follows: (i) cultured, (ii) transferred unfed, to a testing laboratory, and (iii) then maintained under controlled conditions (i.e., temp. 18°±2° C., humidity 75±5% RH). The ticks used were selected for vigor prior to testing, i.e., capable of actively walking and responsive to being touched or gently breathed upon.
During the testing, the temperature was maintained at 25±1° C., and the humidity was ambient. Seven dose levels (concentrations) of sample compound, in the form of serial dilutions in acetone, were derived from a pilot study and covered a range that produced very low to very high mortality. Groups of ten ticks were treated topically (on the abdomen) with 1 μL of a single dose level of the sample compound. Each test was replicated four times, i.e., employing a total of 40 ticks per dose level of each sample compound. As a control, ten ticks were treated with solvent only (acetone) for each test. Following the treatment, the ticks were held in recovery containers maintained under appropriate rearing conditions for 24 hours. Mortality resulting from the treatments was recorded at 24 hours. […] Press, London (1971).]

[5] = tested on: Haemonchus contortus; test: Haemonchus contortus larvacidal (larval development) assay; details: 144 h, read-out: Haemonchus contortus LD99
Outline: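 Nematode eggs placed on agar containing compound (12 two-fold dilutions, final 0.024–50 μg/ml) and left 6 days to develop to L3. LD99 is the lowest concentration inhibiting development of 99% of larvae, derived from well titre (2^n−1) and top concentration.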

[6] = 24 h, read-out: C. felis Mortality (%) 24 h, 24 h, Laboratory 1 A data
[7] = 24 h, read-out: C. felis Mortality (%) 24 h, 24 h, Laboratory 2 B data
[8] = 48 h, read-out: C. felis Mortality (%) 48 h, 48 h, Laboratory 2 B data
[9] = 8 h, read-out: C. felis Mortality (%) 8 h, 8 h, Laboratory 1 A data

## CCO/N=C(\c1ccccc1)c1cc(Cl)ccc1NS(=O)(=O)C(F)(F)F [Compound 178, N-[4-chloro-2-(ethoxyiminophenylmethyl)phenyl]trifluoromethanesulfonamide]
[1]; [6]
  mortality at 1.26 µg/cm2, 1.26 µg/cm2: 96%
[2]; Laboratory 1 C data
  C. felis LC50: 0.3 μg/cm^2
[3]
  R. sanguineus Mortality (%) 48 h: 85%

## CC/C(=N\OC1CCCCC1)c1cc(Cl)ccc1NS(=O)(=O)C(F)(F)F [Compound 157]
[1]; [6]
  mortality at 1.26 µg/cm2, 1.26 µg/cm2: 100%
[2]; Laboratory 1 C data
  C. felis LC50: 0.3 μg/cm^2
[4]
  R. sanguineus LD50: 5.7 μg/tick

## C=CCO/N=C(\C)c1ccc(C(F)(F)F)cc1NS(=O)(=O)C(F)(F)F [Compound 241, N-[2-(1-allyloxyiminoethyl)-5-trifluoromethylphenyl]trifluoromethanesulfonamide]
[1]; [7]
  mortality at 1.26 µg/cm2, 1.26 µg/cm2: 100%
[1]; [8]
  mortality at 1.26 µg/cm2, 1.26 µg/cm2: 100%
[2]; Laboratory 2 D data
  C. felis LC50: 0.1^D μg/cm^2
[4]
  R. sanguineus LD50: 1.9 μg/tick

## CCC(C)O/N=C(\C)c1cc(Cl)ccc1NS(=O)(=O)C(F)(F)F (centres unmarked) [Compound 242]
[1]; [7]
  mortality at 1.26 µg/cm2, 1.26 µg/cm2: 100%
[1]; [8]
  mortality at 1.26 µg/cm2, 1.26 µg/cm2: 100%
[2]; Laboratory 2 D data
  C. felis LC50: 0.1^D μg/cm^2
[4]
  R. sanguineus LD50: 3.1 μg/tick

## C/C(=N\OC(C)C1CC1)c1cc(Cl)ccc1NS(=O)(=O)C(F)(F)F (centres unmarked) [Compound 253]
[1]; [7]
  mortality at 1.26 µg/cm2, 1.26 µg/cm2: 100%
[1]; [8]
  mortality at 1.26 µg/cm2, 1.26 µg/cm2: 100%
[2]; Laboratory 2 D data
  C. felis LC50: 1.2^D μg/cm^2
[4]
  R. sanguineus LD50: 3.4 μg/tick

## C/C(=N\Oc1cccc(Cl)c1)c1cc(Cl)ccc1NS(=O)(=O)C(F)(F)F [Compound 132]
[1]; [6]
  mortality at 1.26 µg/cm2, 1.26 µg/cm2: 100%
[2]; Laboratory 1 C data
  C. felis LC50: 0.2 μg/cm^2
[5]
  IC99: 1.6 µg/mL
[3]
  R. sanguineus Mortality (%) 48 h: 80%

## C/C(=N\OC(C)C)c1ccc(C(F)(F)F)cc1NS(=O)(=O)C(F)(F)F [Compound 235]
[1]; [7]
  mortality at 1.26 µg/cm2, 1.26 µg/cm2: 100%
[1]; [8]
  mortality at 1.26 µg/cm2, 1.26 µg/cm2: 100%
[2]; Laboratory 2 D data
  C. felis LC50: 0.2^D μg/cm^2
[4]
  R. sanguineus LD50: 2.3 μg/tick

## CC/C(=N\Oc1ccc(Cl)cc1)c1cc(Cl)ccc1NS(=O)(=O)C(F)(F)F [Compound 128, N-{4-chloro-2-[1-(4-chlorophenoxyimino)propyl]phenyl}trifluoromethanesulfonamide]
[1]; [6]
  mortality at 1.26 µg/cm2, 1.26 µg/cm2: 100%
[2]; Laboratory 1 C data
  C. felis LC50: 0.08 μg/cm^2
[2]; Laboratory 2 D data
  C. felis LC50: 0.05 μg/cm^2
[5]
  IC99: 0.4 µg/mL
[3]
  R. sanguineus Mortality (%) 48 h: 85%

## CC/C(=N\OCc1ccc(Br)cc1)c1cc(Cl)ccc1NS(=O)(=O)C(F)(F)F [Compound 75]
[1]; [9]
  mortality at 1.26 µg/cm2, 1.26 µg/cm2: 37%
[1]; [6]
  mortality at 1.26 µg/cm2, 1.26 µg/cm2: 78%
[2]; Laboratory 1 C data
  C. felis LC50: 0.3 μg/cm^2
[5]
  IC99: 0.9 µg/mL
[3]
  R. sanguineus Mortality (%) 48 h: 77%

## CCCCO/N=C(\C)c1cc(Cl)ccc1NS(=O)(=O)C(F)(F)F [Compound 244]
[1]; [7]
  mortality at 1.26 µg/cm2, 1.26 µg/cm2: 100%
[1]; [8]
  mortality at 1.26 µg/cm2, 1.26 µg/cm2: 100%
[2]; Laboratory 2 D data
  C. felis LC50: 0.07^D μg/cm^2
[4]
  R. sanguineus LD50: 3.0 μg/tick

## CCON=C(c1ccccc1)c1cc(Cl)ccc1NS(=O)(=O)C(F)(F)F (single isomer, unassigned) [Compound 177, N-[4-chloro-2-(ethoxyiminophenylmethyl)phenyl]trifluoromethanesulfonamide]
[1]; [6]
  mortality at 1.26 µg/cm2, 1.26 µg/cm2: 100%
[2]; Laboratory 1 C data
  C. felis LC50: 0.3 μg/cm^2
[4]
  R. sanguineus LD50: 17.6 μg/tick

## CC/C(=N\OCc1ccc(C(F)(F)F)cc1C(F)(F)F)c1cc(Cl)ccc1NS(=O)(=O)C(F)(F)F [Compound 76, N-{2-[1-(2,4-bistrifluoromethylbenzyloxyimino)propyl]-4-chlorophenyl}trifluoromethanesulfonamide]
[1]; [9]
  mortality at 1.26 µg/cm2, 1.26 µg/cm2: 100%
[2]; Laboratory 1 C data
  C. felis LC50: 0.2 μg/cm^2
[2]; Laboratory 2 D data
  C. felis LC50: 0.05 μg/cm^2
[5]
  IC99: 0.3 µg/mL
[3]
  R. sanguineus Mortality (%) 48 h: 80%

## CC/C(=N\OCc1ccccc1C(F)(F)F)c1cc(Cl)ccc1NS(=O)(=O)C(F)(F)F [Compound 6]
[1]; [9]
  mortality at 1.26 µg/cm2, 1.26 µg/cm2: 69%
[1]; [6]
  mortality at 1.26 µg/cm2, 1.26 µg/cm2: 96%
[2]; Laboratory 1 C data
  C. felis LC50: 0.1 μg/cm^2
[2]; Laboratory 2 D data
  C. felis LC50: 0.03 μg/cm^2
[5]
  IC99: 1.3 µg/mL
[3]
  R. sanguineus Mortality (%) 48 h: 82%

## CC/C(=N\OCC1CCCCC1)c1cc(Cl)ccc1NS(=O)(=O)C(F)(F)F [Compound 104, N-[4-chloro-2-(1-cyclohexylmethoxyiminopropyl)phenyl]trifluoromethanesulfonamide]
[1]; [6]
  mortality at 1.26 µg/cm2, 1.26 µg/cm2: 100%
[2]; Laboratory 1 C data
  C. felis LC50: 0.3 μg/cm^2
[2]; Laboratory 2 D data
  C. felis LC50: 1.6 μg/cm^2
[5]
  IC99: 10 µg/mL
[3]
  R. sanguineus Mortality (%) 48 h: 100%

## CCOC(=O)N(c1ccc(Cl)cc1/C(C)=N/Oc1ccc(F)cc1)S(=O)(=O)C(F)(F)F [Compound 310, N-carbonylethoxy-N-{4-chloro-2-[1-(4-fluorophenoxyimino)ethyl]phenyl}trifluoromethanesulfonamide]
[1]; 8 h, single concentration 1.26 μg/cm^2 on treated glass, adult fleas, Laboratory 2 B data, read-out: Ctenocephalides felis Mortality (%) 8 h
  mortality at 1.26 µg/cm2: 56%
[1]; 24 h, single concentration 1.26 μg/cm^2 on treated glass, adult fleas, Laboratory 2 B data, read-out: Ctenocephalides felis Mortality (%) 24 h
  mortality at 1.26 µg/cm2: 100%
[3]
  Rhipicephalus sanguineus Mortality (%) 24 h: 52%

## C/C(=N\OCc1cccs1)c1cc(Cl)ccc1NS(=O)(=O)C(F)(F)F [Compound 190]
[1]; 8 h, read-out: C. felis Mortality (%) 8 h, 8 h, Laboratory 2 B data
  mortality at 1.26 µg/cm2, 1.26 µg/cm2: 98%
[1]; [7]
  mortality at 1.26 µg/cm2, 1.26 µg/cm2: 100%
[3]
  R. sanguineus Mortality (%) 48 h: 75%

## CCCCc1cc(-c2cc(Cl)ccc2NS(=O)(=O)C(F)(F)F)no1 [Compound 291]
[1]; 8 h, read-out: Ctenocephalides felis Mortality (%) 8 h
  mortality at 1.26 µg/cm2: 91%
[1]; 24 h, read-out: Ctenocephalides felis Mortality (%) 24 h
  mortality at 1.26 µg/cm2: 100%
[3]
  Rhipicephalus sanguineus Mortality (%) 24 h: 67%
